Assay results reported in ChEMBL document CHEMBL6121066, “Structure-Activity Relationship Studies of DNA Methyltransferase 1 Monovalent Degraders” (J Med Chem, 2025).

Experiments:
[1] = system: HCT-116; experiment: Induction of molecular glue effect mediated DNMT1 degradation in human HCT-116 cells assessed as reduction in DNMT1 protein level by measuring maximal efficacy at 1 uM incubated for 24 hrs by Western blot analysis relative to control; type: cell-based
[2] = Induction of molecular glue effect mediated DNMT1 degradation in human HCT-116 cells assessed as reduction in DNMT1 protein level incubated for 24 hrs by Western blot analysis; type: cell-based; settings: HCT-116, 24 h

| Compound | Emax [1] | DC50 [2] |
| --- | --- | --- |
| CCc1c(C#N)c(SC(C(N)=O)c2ccccc2)nc(N2CCN(C(=O)C(C)(C)C)CC2)c1C#N (stereo not drawn) | 88% | 63 nM |
| CCc1c(C#N)c(SC(C(N)=O)c2ccccc2)nc(N2CCN(C(=O)c3ccc(Br)cc3)CC2)c1C#N (stereo not drawn) | 79% | 563 nM |
| CCc1c(C#N)c(SC(C(N)=O)c2ccccc2)nc(N2CCC(N)C2)c1C#N (stereo not drawn) | 87% | 92 nM |
| CCc1c(C#N)c(SC(C(=O)NC)c2ccccc2)nc(N2CCC(N)CC2)c1C#N (stereo not drawn) | 82% | 111 nM |
| CCc1c(C#N)c(SC(C(N)=O)c2ccccc2)nc(N2CCN(C(=O)C3CCCCCC3)CC2)c1C#N (stereo not drawn) | 87% | 175 nM |
| CCc1c(C#N)c(S[C@@H](C(N)=O)c2ccccc2)nc(N(C)C)c1C#N | 89% | – |
| CCc1c(C#N)c(SC(C(N)=O)c2ccccc2)nc(N2CCC(=O)N(C)CC2)c1C#N (stereo not drawn) | 86% | 121 nM |
| CCc1c(C#N)c(SC(C(N)=O)c2ccccc2)nc(N2CCNC(=O)C2)c1C#N (stereo not drawn) | 65% | 534 nM |
| CCc1c(C#N)c(SC(C(N)=O)c2ccccc2)nc(N2CCCNCC2)c1C#N (stereo not drawn) | 87% | 119 nM |
| CCc1c(C#N)c(SC(C(N)=O)c2ccccc2)nc(N2CCN(C(=O)c3ccco3)CC2)c1C#N (stereo not drawn) | 94% | 42 nM |
| CCc1c(C#N)c(SC(C(N)=O)c2ccccc2)nc(N(C)CCNC(C)=O)c1C#N (stereo not drawn) | 56% | 753 nM |
| CCc1c(C#N)c(SC(C(N)=O)c2ccccc2)nc(N(C)CC(N)=O)c1C#N (stereo not drawn) | 88% | 99 nM |
| CCc1c(C#N)c(SC(C(N)=O)c2ccccc2)nc(N2CCS(=O)(=O)CC2)c1C#N (stereo not drawn) | 74% | 362 nM |
| CCc1c(C#N)c(SC(C(N)=O)c2ccccc2)nc(N(C)CCN)c1C#N (stereo not drawn) | 79% | 78 nM |
| CCc1c(C#N)c(SC(C(N)=O)c2ccccc2)nc(N2CC3(CN(C(=O)C(C)(C)C)C3)C2)c1C#N (stereo not drawn) | 43% | 946 nM |
| CCc1c(C#N)c(SC(C(N)=O)c2ccccc2)nc(N2CCN(C(=O)c3cc4ccccc4s3)CC2)c1C#N (stereo not drawn) | 74% | 714 nM |
| CCc1c(C#N)c(SC(C(N)=O)c2ccccc2)nc(N2CCN(C)C(=O)C2)c1C#N (stereo not drawn) | 87% | 190 nM |
